ChEMBL document CHEMBL1201862, “PubChem BioAssay data set” (2004)
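Briefly, cells in 96-well plates were exposed to five compound concentrations for 48 h, and endpoints were estimated by linear interpolation. At the GI50, growth is halved.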 Activity calls are given as the source filed them. Rule as the data show it: active = GI50 up to about 1.1 µM and inactive = higher.

What was measured:
Experiment in all cases: growth of human tumour cells (NCI), 48 h
ACHN = test system: ACHN
CAKI-1 = test system: CAKI-1
LOX IMVI = test system: LOX IMVI
NCI-H522 = test system: NCI-H522
RXF 393 = test system: RXF 393
SF-295 = test system: SF-295
SK-MEL-28 = test system: SK-MEL-28
SK-MEL-2 = test system: SK-MEL-2
SN12C = test system: SN12C
SNB-19 = test system: SNB-19
SR = test system: SR
SW-620 = test system: SW-620
UACC-257 = test system: UACC-257
UACC-62 = test system: UACC-62
OVCAR-3 = test system: OVCAR-3

Measured: GI50

O=C(c1ccccc1)c1ccc2c(c1)N=C(c1ccc(Cl)c(Cl)c1)CC(c1ccc3ccccc3c1)N2 (configuration not stated)
inactive: ACHN > 100 µM | CAKI-1 > 100 µM | LOX IMVI > 100 µM | NCI-H522 > 100 µM | RXF 393 > 100 µM | SF-295 > 100 µM | SK-MEL-28 > 100 µM | SK-MEL-2 > 100 µM | SN12C > 100 µM | SNB-19 > 100 µM | SR > 100 µM | SW-620 > 100 µM | UACC-257 > 100 µM | UACC-62 > 100 µM

O=C(c1ccco1)N(C(=S)N1CCN(c2ccccn2)CC1)c1ccccc1
inactive: ACHN > 100 µM | CAKI-1 > 100 µM | LOX IMVI > 100 µM | NCI-H522 > 100 µM | OVCAR-3 > 100 µM | RXF 393 > 100 µM | SF-295 > 100 µM | SK-MEL-28 > 100 µM | SK-MEL-2 > 100 µM | SN12C > 100 µM | SNB-19 > 100 µM | SR > 100 µM | SW-620 > 100 µM | UACC-257 > 100 µM | UACC-62 > 100 µM

COc1ccc(NC(=O)/C(Cc2cc(=O)oc3cc(O)ccc23)=N\NC(C)(C)C)c(OC)c1
inactive: ACHN > 100 µM | CAKI-1 > 100 µM | LOX IMVI > 100 µM | NCI-H522 > 100 µM | OVCAR-3 > 100 µM | SF-295 > 100 µM | SK-MEL-28 > 100 µM | SK-MEL-2 > 100 µM | SN12C > 100 µM | SNB-19 > 100 µM | SR > 100 µM | SW-620 > 100 µM | UACC-257 > 100 µM | UACC-62 > 100 µM

CC12CCCCC1(C)C2Sc1ccccc1 (configuration not stated)
inactive: ACHN 46.2 µM | CAKI-1 > 56.1 µM | LOX IMVI 29.9 µM | NCI-H522 28.9 µM | OVCAR-3 27.9 µM | RXF 393 23.9 µM | SF-295 35.6 µM | SK-MEL-28 40.5 µM | SK-MEL-2 23.4 µM | SN12C 64.3 µM | SNB-19 38.5 µM | SW-620 42.8 µM | UACC-257 39.1 µM | UACC-62 56.9 µM

CC1=C(C(=O)Nc2c(C)cccc2C)C(c2ccccc2Cl)C(C(=O)Nc2c(C)cccc2C)=C(C)N1
inactive: ACHN > 100 µM | CAKI-1 > 100 µM | LOX IMVI > 100 µM | NCI-H522 > 100 µM | OVCAR-3 > 100 µM | RXF 393 > 100 µM | SF-295 > 100 µM | SK-MEL-28 > 100 µM | SK-MEL-2 > 100 µM | SN12C > 100 µM | SNB-19 > 100 µM | SW-620 > 100 µM | UACC-257 > 100 µM

NC1=NN(c2ccccc2)C(=O)C1C(=O)C(=O)Nc1ccccc1 (configuration not stated)
inactive: ACHN > 100 µM | CAKI-1 > 100 µM | LOX IMVI > 100 µM | NCI-H522 > 100 µM | OVCAR-3 > 100 µM | SF-295 > 100 µM | SK-MEL-2 > 100 µM | SN12C > 100 µM | SNB-19 > 100 µM | SW-620 > 100 µM | UACC-257 > 100 µM | UACC-62 > 100 µM

CCOc1ccccc1NC(=O)C1=C(C)NC(C)=C(C(=O)Nc2ccccc2OCC)C1c1ccc([N+](=O)[O-])cc1
inactive: ACHN > 100 µM | CAKI-1 > 100 µM | NCI-H522 > 100 µM | OVCAR-3 > 100 µM | RXF 393 > 100 µM | SF-295 21.3 µM | SK-MEL-28 > 100 µM | SK-MEL-2 44.3 µM | SN12C > 100 µM | SNB-19 > 100 µM | SR 47.6 µM | SW-620 > 100 µM | UACC-257 31.2 µM | UACC-62 26.1 µM

COc1c(OC(C)=O)ccc(/C=C2\N=C(C)OC2=O)c1[N+](=O)[O-]
inactive: ACHN > 100 µM | CAKI-1 > 100 µM | LOX IMVI > 100 µM | NCI-H522 > 100 µM | RXF 393 > 100 µM | SF-295 > 100 µM | SK-MEL-2 > 100 µM | SN12C > 100 µM | SNB-19 > 100 µM | SR > 100 µM | SW-620 > 100 µM | UACC-257 > 100 µM | UACC-62 > 100 µM

Cc1ccc(NC(=O)C(=O)CC(=O)c2c(C)[n+]([O-])c3ccccc3[n+]2[O-])cc1C
inactive: ACHN > 100 µM | CAKI-1 > 100 µM | LOX IMVI > 100 µM | NCI-H522 66.2 µM | OVCAR-3 48.4 µM | RXF 393 44.7 µM | SF-295 > 100 µM | SK-MEL-28 > 100 µM | SK-MEL-2 > 100 µM | SN12C > 100 µM | SNB-19 47.3 µM | SR 33.5 µM | SW-620 49.4 µM | UACC-257 > 100 µM | UACC-62 > 100 µM

C=CCCC1(C)CCCNC1=S (configuration not stated)
inactive: ACHN > 100 µM | LOX IMVI > 100 µM | OVCAR-3 > 100 µM | RXF 393 > 100 µM | SF-295 > 100 µM | SK-MEL-28 > 100 µM | SK-MEL-2 > 100 µM | SN12C > 100 µM | SNB-19 > 100 µM | SR > 100 µM | SW-620 > 100 µM | UACC-257 > 100 µM | UACC-62 > 100 µM

c1ccc(C2OCCO2)c(OCCOc2cc(OCCOc3ccccc3C3OCCO3)c(OCCOc3ccccc3C3OCCO3)cc2OCCOc2ccccc2C2OCCO2)c1
inactive: ACHN 24.7 µM | CAKI-1 > 100 µM | LOX IMVI 49.4 µM | NCI-H522 2.42 µM | OVCAR-3 17.8 µM | RXF 393 5.35 µM | SF-295 17.9 µM | SK-MEL-28 > 100 µM | SK-MEL-2 16.5 µM | SN12C > 100 µM | SR > 100 µM | SW-620 81.3 µM | UACC-257 > 100 µM | UACC-62 9.86 µM

Cc1cc2ncn(-c3nc4ccccc4nc3C(C#N)S(C)(=O)=O)c2cc1C (configuration not stated)
inactive: ACHN > 100 µM | CAKI-1 > 100 µM | LOX IMVI > 100 µM | NCI-H522 > 100 µM | OVCAR-3 > 100 µM | SK-MEL-28 > 100 µM | SK-MEL-2 > 100 µM | SN12C > 100 µM | SNB-19 > 100 µM | SR > 100 µM | SW-620 > 100 µM | UACC-257 > 100 µM | UACC-62 > 100 µM

CCN(CC)CCCCC1CCN(CC(=O)N2c3cc(Cl)ccc3NC(=O)CC2C)CC1 (configuration not stated)
inactive: ACHN > 100 µM | CAKI-1 > 100 µM | LOX IMVI > 100 µM | OVCAR-3 > 100 µM | SF-295 > 100 µM | SK-MEL-28 > 100 µM | SN12C > 100 µM | SNB-19 > 100 µM | SR 74 µM | SW-620 > 100 µM | UACC-257 > 100 µM | UACC-62 > 100 µM

CCCCNC(=O)C1C(=O)N(CCCC)C(=O)/C1=N\N (configuration not stated)
inactive: ACHN > 100 µM | CAKI-1 > 100 µM | LOX IMVI > 100 µM | NCI-H522 > 100 µM | OVCAR-3 > 100 µM | RXF 393 > 100 µM | SF-295 > 100 µM | SK-MEL-28 > 100 µM | SK-MEL-2 > 100 µM | SN12C > 100 µM | SNB-19 > 100 µM | SW-620 > 100 µM | UACC-257 > 100 µM | UACC-62 > 100 µM

O=C(O)/C(=C/c1c(O)ccc2ccccc12)c1csc(-c2nc(/C(=C\c3c(O)ccc4ccccc34)C(=O)O)cs2)n1
inactive: ACHN 4.83 µM | LOX IMVI 19.8 µM | OVCAR-3 13.3 µM | RXF 393 3.21 µM | SF-295 11.2 µM | SK-MEL-28 14.4 µM | SK-MEL-2 2.33 µM | SNB-19 13.5 µM | SW-620 24 µM | UACC-257 14.9 µM | UACC-62 10.4 µM

ClC(Cl)[Si]12OCCN(CCO1)CCO2
inactive: ACHN > 100 µM | CAKI-1 > 100 µM | NCI-H522 > 100 µM | OVCAR-3 > 100 µM | RXF 393 > 100 µM | SF-295 > 100 µM | SK-MEL-28 > 100 µM | SK-MEL-2 > 100 µM | SN12C > 100 µM | SNB-19 > 100 µM | SR > 100 µM | SW-620 > 100 µM | UACC-257 > 100 µM | UACC-62 > 100 µM

COc1ccc2[nH]c(=O)cc(C)c2c1[N+](=O)[O-]
inactive: ACHN > 100 µM | CAKI-1 31.7 µM | LOX IMVI > 100 µM | NCI-H522 47.4 µM | OVCAR-3 > 100 µM | RXF 393 > 10 µM | SF-295 > 100 µM | SK-MEL-28 > 100 µM | SK-MEL-2 > 100 µM | SN12C > 100 µM | SNB-19 > 100 µM | SW-620 > 100 µM | UACC-257 > 100 µM | UACC-62 > 100 µM

COc1ccc(C2C(C#N)=C(O)NC(O)=C2C#N)cc1OC
inactive: CAKI-1 > 100 µM | NCI-H522 > 100 µM | OVCAR-3 > 100 µM | SF-295 > 100 µM | SK-MEL-28 > 100 µM | SK-MEL-2 > 100 µM | SN12C > 100 µM | SNB-19 > 100 µM | SR > 100 µM | SW-620 > 100 µM

Cc1ccccc1NC(=O)C1C(=O)N(c2ccccc2C)C(=O)/C1=N\NC(N)=O (configuration not stated)
inactive: ACHN > 100 µM | CAKI-1 > 100 µM | NCI-H522 > 100 µM | OVCAR-3 > 100 µM | RXF 393 > 100 µM | SF-295 > 100 µM | SK-MEL-28 > 100 µM | SK-MEL-2 > 100 µM | SN12C > 100 µM | SNB-19 > 100 µM | SR > 100 µM | SW-620 > 100 µM | UACC-257 > 100 µM | UACC-62 > 100 µM

CCC12CCC[C@@]13C=C[C@H](O3)C(C)(C)C2=O (some centres not stated)
inactive: ACHN > 100 µM | CAKI-1 > 100 µM | LOX IMVI > 100 µM | NCI-H522 > 100 µM | OVCAR-3 > 100 µM | RXF 393 > 100 µM | SF-295 > 100 µM | SK-MEL-2 > 100 µM | SN12C > 100 µM | SNB-19 > 100 µM | SR > 100 µM | SW-620 > 100 µM | UACC-257 > 100 µM | UACC-62 > 100 µM
